{"source": "patent US20200390755A1", "about": "“COMPOUND FOR TREATING NERVOUS SYSTEM DISEASES AND USE THEREOF” (SHAANXI MICOT TECHNOLOGY CO., LTD., priority 2018, published 2020)", "key": {"[1]": {"system": "WT mice", "experiment": "High-altitude balance beam (5 mm) experiment 2, WT mice", "type": "in vivo, mouse", "details": "5 mg/kg/d intragastric", "protocol": "7-week-old N171-82Q HD male mice were paired with female B6C3F1/J hybrid mice to obtain newborn mice. From 21 days of age, male mice were housed in separate cages. 0.5 cm of mouse tail tissue was removed to extract DNA to determine the genotype of the mouse, such that N171-82Q HD mice and WT mice needed for the experiment were obtained. The mice were randomly divided into WT Vehicle group (normal mice), WT test compound group (administration group of normal mice, 5 mg/kg/d, n=10), HD Vehicle group (blank group of HD mice, n=15), HD test compound group (administration groups 1-5 of HD mice, 5 mg/kg/d, n=10). The test compound was suspended in 1% CMC-Na solution and administered by intragastric administration until the end of the study. The weights of the mice were measured every week. Behavioral tests were performed at 12 weeks, 18 weeks, and 24 weeks of age to investigate motor function. At 20 weeks, 3 samples of tissue from each group were used for western blotting and immunohistochemistry. At 24 weeks, MRI scans were performed. At the end of the study, the effect of the test compound on the mortality of mice was evaluated. The software Sigmaplot 13.0 was used for statistical analysis of the data, and the data of each group was expressed as mean standard error (x±SEM). Behavioral test results were analyzed using two-way (genotype and processing factor) ANOVA and post-ho tests, the comparison and statistics of weight data were performed using two-way (genotype and age) ANOVA of repeated measures, and mortality was counted using Kaplan-Meier method. Other measurement data were analyzed by one-way ANOVA. P<0.05 was considered statistically significant. The motor function of mice was evaluated by the rotarod experiment and three types of balance beam experiments. […] If the time for crossing the beams was greater than 60 seconds, it was recorded as 60 seconds. a square balance beam with a length of 80 cm and a width of 5 mm was place at a height of about 50 cm from the ground. […]"}, "[2]": {"system": "WT mice", "experiment": "DARPP32 protein level in striatum by Western blotting, WT mice", "type": "in vivo, mouse", "details": "5 mg/kg/d until 25 weeks, WT Vehicle = 100, n = 3", "protocol": "7-week-old N171-82Q HD male mice were paired with female B6C3F1/J hybrid mice to obtain newborn mice. From 21 days of age, male mice were housed in separate cages. 0.5 cm of mouse tail tissue was removed to extract DNA to determine the genotype of the mouse, such that N171-82Q HD mice and WT mice needed for the experiment were obtained. The mice were randomly divided into WT Vehicle group (normal mice), WT test compound group (administration group of normal mice, 5 mg/kg/d, n=10), HD Vehicle group (blank group of HD mice, n=15), HD test compound group (administration groups 1-5 of HD mice, 5 mg/kg/d, n=10). The test compound was suspended in 1% CMC-Na solution and administered by intragastric administration until the end of the study. The weights of the mice were measured every week. Behavioral tests were performed at 12 weeks, 18 weeks, and 24 weeks of age to investigate motor function. At 20 weeks, 3 samples of tissue from each group were used for western blotting and immunohistochemistry. At 24 weeks, MRI scans were performed. At the end of the study, the effect of the test compound on the mortality of mice was evaluated. […] The total protein in the striatum tissue was extracted, and the protein level of DARPP 32 was detected by Western blotting experiment. […] The protein was extracted, and the protein level of DARPP 32 was detected by Western blotting."}}}
{"smiles": "O=c1cc(-c2ccc(N3CCCCC3)cc2)oc2c(O)c(O)ccc12", "note": "[Example 1, 7,8-dihydroxy-2-(4-(piperidin-1-yl)phenyl)-4H-chromen-4-one]", "values": [{"measurement": "Time for crossing the beams, high-altitude balance beam (5 mm)", "setting": "[1]; 12 w", "result": "11.64 ± 4.20", "unit": "s"}, {"measurement": "Time for crossing the beams, high-altitude balance beam (5 mm)", "setting": "[1]; 18 w", "result": "9.91 ± 3.05", "unit": "s"}, {"measurement": "Time for crossing the beams, high-altitude balance beam (5 mm)", "setting": "[1]; 24 w", "result": "14.18 ± 7.07", "unit": "s"}, {"measurement": "Relative intensity of DARPP32 protein", "setting": "[2]", "result": "96.066 ± 5.805"}]}
